One compound from patent US20140005269A1, “POLYMERIC MATRIX OF POLYMER-LIPID NANOPARTICLES AS A PHARMACEUTICAL DOSAGE FORM” (priority 2010, published 2014) can be followed below.

A short description of the series: In vitro drug release, USP 32 apparatus II dissolution. In kind it is physicochemical. Particulars: pH 6.8 (standard buffer KH2PO4/NaOH). As for the experimental part:
Drug release was assessed using a USP 32 apparatus II dissolution system (Erweka DT 700, Erweka GmbH, Heusenstamm, Germany). Temperature and stirring rate was at 37±0.5° C. and 50 rpm respectively while the dissolution media was 0.1N HCl, buffers pH 1.5 and 4.5. Samples were withdrawn at predetermined intervals and replaced with the same volume of fresh medium, and the quantity of L-dopa released was quantified using UV spectroscopy. In vitro drug release studies were also undertaken for E3 matrices formulated from IPBs in varying normalities of acetic acid in buffer pH 1.5 (standard buffer KCl/HCl), pH 4.5 (0.025M KH2PO4/H2PO4) and pH 6.8 (standard buffer KH2PO4/NaOH) was employed to observe the behavior of the matrices and not for drug release as the model drug L-dopa was unstable at such pH values.
The incorporation of polymer-lipid nanoparticles into the IPB was undertaken as described earlier via direct compression. However, the L-dopa-loaded polymer-lipid nanoparticles was incorporated instead of L-dopa alone while the in vitro drug release was assessed as described earlier.

For `N[C@@H](Cc1ccc(O)c(O)c1)C(=O)O` [L-dopa, 3-(3,4-dihydroxyphenyl)-L-alanine], the “stability of the model drug in dissolution medium” value is listed as “unstable”.
